# Assays:
# male rats = assay: Facial formalin model of tonic pain (formalin injection into the lip, facial wiping/grooming); format: in vivo; conditions: rat lip formalin
# Experimental: Time spent grooming was determined over 45 minutes and grouped in 3 minute bins. […] The area under the curve (AUC) for each compound or vehicle was approximated using the trapezodial method. % Reduction=[(Vehicle AUC−Treatment AUC)/Vehicle AUC)]×100%. Data are presented as the mean±1 SEM. (n=6-8 Rats/group).
# The paw formalin model is widely used to assess tonic pain efficacy of putative and known analgesic treatments.
# NOP receptor = target: T1, NOP receptor (Rattus norvegicus, UniProt P35370); assay: Effect of nociceptin antagonist on intranasal nociceptin induced reduction of thermal nociception; format: in vivo; conditions: subcutaneous 10.0 mg/kg, 45 minutes before i.n. nociceptin (5.0 mg/kg); rat cheek and hindpaw
# T1 construct: from tissue; host or cells: whole living male Sprague-Dawley rats (in vivo)
# Excerpt: This experiment was to verify the binding site of nociceptin induced analgesia in a thermal nociceptive rodent model.
# (A) Groups of six rats per test run were lightly anesthetized with urethane (1.0 g/kg, i.p., titrated to minimal activity in the absence of a stimulus) (Sherman and Loomis et al, 1996). The left and right cheeks and right hindpaw were blackened with India ink to allow even heat distribution.
# (B) Each 200-300 g male Sprague-Dawley rat was subjected to varying heat intensities on the left and right check and right hindpaw for selective testing of A-delta vs. C fiber nociception (Yeomans et al., 1996). • For C-fiber testing, the heat intensity was adjusted by altering the supply voltage of a focused projector lamp until a withdrawal latency between 9-13 seconds was observed. […] To reduce the potential for tissue damage, a cut-off latency of 20 seconds was used after which the stimulus was terminated. […]
# (E) Withdrawal latencies were measured in response to radiant heat stimulation of the left and right cheeks, followed by similar measurements of response latencies for each hindpaw. […]
# The efficacy of nasal application of nociceptin was measured in rats pretreated with subcutaneous nociceptin antagonist in comparison to rats pre-treated with subcutaneous saline vehicle. […]
# rats = conditions: intraperitoneal 3.0 mg/kg or intranasal 4.0 mg/kg, regardless of route
# Experimental: Compounds were administered 20-30 minutes prior to the charcoal meal (2 mL/rat). Rats were sacrificed 30 minutes after receiving the meal. % transit was calculated as the ratio of the travel distance of the charcoal marker divided by the full length of the small intestine multiplied by 100%. Data are presented as the mean±1 SEM. (n=8 Rats/group).
# In order to determine whether intransasal N/OFQ, which has a similar analgesic efficacy to that of strong opiates, would also produce constipation, the effects of intranasal N/OFQ on gastric transit time was assessed. […] Stomach and small intestine were immediately removed and both the total length of small intestine and the distance traveled by the charcoal were recorded. Percent transit was calculated as the ratio of charcoal distance divided by total small intestine length multiplied by 100%.
# T1 sequence (P35370 whole entry): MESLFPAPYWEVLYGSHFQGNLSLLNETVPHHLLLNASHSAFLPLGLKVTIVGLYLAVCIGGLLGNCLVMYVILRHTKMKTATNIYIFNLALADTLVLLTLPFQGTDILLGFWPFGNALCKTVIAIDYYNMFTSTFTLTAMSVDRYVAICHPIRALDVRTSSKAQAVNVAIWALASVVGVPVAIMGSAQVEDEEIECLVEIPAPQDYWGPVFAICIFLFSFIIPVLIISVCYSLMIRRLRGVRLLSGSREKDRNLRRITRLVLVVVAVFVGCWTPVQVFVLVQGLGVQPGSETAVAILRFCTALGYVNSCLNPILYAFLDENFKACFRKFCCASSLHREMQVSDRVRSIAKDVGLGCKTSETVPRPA
smiles,measurement,setting,value
CNS(=O)(=O)Cc1ccc2[nH]cc(CCN(C)C)c2c1 [sumatriptan],inhibition at 42 mg/kg,"male rats; ip, 42 mg/kg i.p., read-out: inhibition of facial wiping behavior",43.8%
"Cc1cccc2c1CC[C@@H](CN1CCC(c3c(Cl)cccc3Cl)CC1)C[C@H]2O [SB-612111, (−)-cis-1-methyl-7-[[4-(2,6-dichlorophenyl)piperidin-1-yl]-methyl]-6,7,8,9-tetrahydro-5H-benzocyclohepten-5-ol]",effect on analgesic activity of intranasal nociceptin,NOP receptor,apparent block of the analgesic activity of nociceptin
CN1CC[C@]23c4c5ccc(O)c4O[C@H]2[C@@H](O)C=C[C@H]3[C@H]1C5 [morphine],maximal inhibition of facial wiping behavior,male rats; 3 mg/kg i.n.,80.2%
same,effect on intestinal transit (percent transit),rats,considerable slowing of transit

# From US9238053B2, “Methods for treatment of pain” (Nocicepta LLC, priority 2009, dated 2016)
